In patent publication US10023565B2, “N,N′ substituted piperidinamine compounds, and preparation method and usage thereof” (Institute of Pharmacology and Toxicology Academy of …, priority 2013, dated 2018):
Where “and” joins values, the source holds several entries; their conditions need not be identical. Equal entries are not always repeated. Where two headings read alike, the source gives them in different places.

Assay: Mice pharmacokinetic evaluation (LC-MS/MS of plasma)
Format: in vivo, ICR mice
Conditions: for in vivo absorption and elimination: intragastric administration to mice
Experimental: Mice pharmacokinetic evaluation of the compound of Example 36 according to the method described below
ICR mice, SPS grade, male, weighed […], license number SCXK (Beijing) 2012-0001, purchased from Beijing Vital River Laboratory Animal Technology Co. Ltd.
Chromatographic conditions: Analytical column: Capcell Pak MG, 5 μm particle size, 50×2.0 mm I.D. (Shiseido Co.), connected with C18 guard column, 4×3.0 mm I.D. (PhenomenexCo., USA), column temperature 25° C., mobile phase: acetonitrile −2 mM ammonium acetate (65:35, v/v), flow rate 0.3 ml/min, internal standard: loratadine.
MS conditions: Electrospray ionization source (Turbo Ionspray source), positive ion mode detection; spray voltage 4500 V; source temperature 400° C.; nebulizer gas (NEB) 8; curtain gas (CUR) 10; collision gas (CAD) 4; scanning mode: multiple reaction monitoring (MRM), ion reactions for quantitative analysis: m/z 354.4→m/z 154.1 (Mol, CE 43 V) and m/z 383→m/z 337 (internal standard loratadine, CE 32 V), scanning time 150 msec.
To 50 μl of plasma, were added 10 μl of internal standard solution (125 ng/ml aqueous solution of loratadine), and 500 μl of n-hexane-dichloromethane-isopropanol (100:50:5, v/v/v); they were uniformly mixed, followed by vortexing for 3 min, and centrifuging for 10 min (3000 rpm); the supernatant was taken and blow dried with air streamat 40° C.; the residue was dissolved with 150 μl […], and subjected to LC-MS/MS analysis.
30 ICR male mice were randomly divided into […], five mices each group, including Mol 10 mg/kg oral group and 1.0 mg/kg tail intravenous injection group. For oral group, before administration, the animals were fasted for 12 h, with free access to water; 0.08, 0.25, 0.5, 1, 2, 4, 6, 8, 12 and 24 h after intragastrical administration, 0.1 ml of orbital venous sinus blood was taken, placed in anticoagulation tube containing heparin sodium, and subjected to 3000 g centrifugation for 15 min; and then, the plasma was taken and stored in a −20° C. refrigerator. […]
Pharmacokinetic parameters were calculated using non-compartment model of Winnonlin® software (Version 5.2.1, USA). Cmax is the measured maximum plasma concentration, Tmax is time to peak plasma concentration after oral administration, t1/2 is drug terminal elimination halflife, MRT is average residence time of drug in vivo, the area AUC0-t under plasma concentration—time curve is calculated by trapezoidal method.
Bioavailability is calculated as follows: […]
AUC: Area (h*ng/ml) under the curve; D: dose (mg/kg)

[1] = IV 1.0 mg/kg, individual mice 4-6, listed as Mol, 1 mg/kg
[2] = Po 10 mg/kg, individual mice 1-3, listed as Mol, 10 mg/kg
[3] = male, ICR, mouse, plasma, iv, 1 mg/kg, IV 1.0 mg/kg, Mean ± SD, n = 3
[4] = male, ICR, mouse, plasma, iv, 1 mg/kg, IV 1.0 mg/kg, individual mice 4-6

SMILES: CSc1nccc(N2CCC(N(C)Cc3ccc(C#N)cc3)CC2)n1 [Example 36, N-methyl-N-(4-cyanobenzyl)-N-[1-(2-methylthiopyrimidin-4-yl)piperidin-4-yl]amine]
- Ke (IV 1.0 mg/kg, Mean ± SD, n = 3): 0.97 ± 0.88 h⁻¹
- AUC0-∞ [1]: 37.81 ng·h/mL and 58.27 ng·h/mL
- Cmax [1]: 63.90 ng/mL and 71.35 ng/mL
- Ke [1]: 1.98 h⁻¹ and 0.51 h⁻¹ and 0.43 h⁻¹
- MRT0-t [1]: 0.42 h and 1.02 h and 2.40 h
- MRT0-∞ [1]: 0.46 h and 1.35 h and 2.71 h
- Tmax [1]: 0.03 h (2×) and 0.08 h
- t1/2 [1]: 0.35 h and 1.37 h and 1.62 h
- F (bioavailability) (Po 10 mg/kg vs IV 1.0 mg/kg, individual mice 1-3, listed as Mol): 43.20% and 63.94% and 59.39%
- Ke (Po 10 mg/kg, Mean ± SD, n = 3): 0.43 ± 0.33 h⁻¹
- Cmax (Po 10 mg/kg, Mean ± SD, n = 3, listed as Mol, 10 mg/kg): 260.2 ± 63.19 ng/mL
- AUC0-∞ [2]: 317.86 ng·h/mL and 305.15 ng·h/mL
- Cmax [2]: 260.48 ng/mL and 323.37 ng/mL
- Ke [2]: 0.40 h⁻¹ and 0.77 h⁻¹ and 0.13 h⁻¹
- MRT0-t [2]: 1.26 h and 0.93 h and 2.56 h
- MRT0-∞ [2]: 1.34 h and 0.95 h and 3.57 h
- Tmax [2]: 0.08 h and 1.00 h and 0.25 h
- t1/2 [2]: 1.74 h and 0.90 h and 5.53 h
- in vivo absorption and elimination (10 mg/kg): in vivo absorption and elimination of the compound both are faster
- in vivo absorption and elimination (10 mg/kg, listed as Mol): the vivo absorption and elimination after intragastrical administration to mice both were quite fast
- Plasma concentration of active compound (intravenous 1.0 mg/kg, 0.03 h, individual mice 4-6, listed as Mol, 1 mg/kg): 99.34 ng/mL and 9.23 ng/mL and 71.35 ng/mL
- Plasma concentration of active compound (intravenous 1.0 mg/kg, 0.08 h, individual mice 4-6, listed as Mol, 1 mg/kg): 63.90 ng/mL and 63.03 ng/mL
- Plasma concentration of active compound (intravenous 1.0 mg/kg, 0.17 h, individual mice 4-6, listed as Mol, 1 mg/kg): 56.30 ng/mL and 52.58 ng/mL
- Plasma concentration of active compound (intravenous 1.0 mg/kg, 0.5 h, individual mice 4-6, listed as Mol, 1 mg/kg): 48.72 ng/mL and 24.29 ng/mL and 21.45 ng/mL
- Plasma concentration of active compound (intravenous 1.0 mg/kg, 1.0 h, individual mice 4-6, listed as Mol, 1 mg/kg): 10.10 ng/mL and 3.94 ng/mL and 7.02 ng/mL
- Plasma concentration of active compound (intravenous 1.0 mg/kg, 2.0 h, individual mice 4-6, listed as Mol, 1 mg/kg): 2.35 ng/mL and 0.95 ng/mL and 1.99 ng/mL
- Plasma concentration of active compound (intravenous 1.0 mg/kg, 4.0 h, individual mice 4-6, listed as Mol, 1 mg/kg): 2.23 ng/mL
- Plasma concentration of active compound (intravenous 1.0 mg/kg, 8.0 h, individual mice 4-6, listed as Mol, 1 mg/kg): 0.98 ng/mL
- AUC(0-inf) [3]: 51.2 ± 11.6 ng·h/mL
- AUC(0-t) [3]: 49.6 ± 11.4 ng·h/mL
- half-life [3]: 1.11 ± 0.67 h
- Cmax (male, ICR, mouse, plasma, iv, 1 mg/kg, IV 1.0 mg/kg, Mean ± SD, n = 3, read-out: Cmax): 78.1 ± 18.7 ng/mL
- MRT last (male, ICR, mouse, plasma, iv, 1 mg/kg, IV 1.0 mg/kg, Mean ± SD, n = 3, read-out: MRT0-t): 1.28 ± 1.01 h
- MRT inf (male, ICR, mouse, plasma, iv, 1 mg/kg, IV 1.0 mg/kg, Mean ± SD, n = 3, read-out: MRT0-∞): 1.51 ± 1.13 h
- Tmax (male, ICR, mouse, plasma, iv, 1 mg/kg, IV 1.0 mg/kg, Mean ± SD, n = 3, read-out: Tmax): 0.05 ± 0.03 h
- AUC(0-inf) [4]: 57.6 ng·h/mL
- AUC(0-t) [4]: 56.4 ng·h/mL
- Cmax (male, ICR, mouse, plasma, iv, 1 mg/kg, IV 1.0 mg/kg, individual mice 4-6, read-out: Cmax): 99.3 ng/mL
- concentration at 0.03 h (male, ICR, mouse, plasma, iv, 1 mg/kg, intravenous 1.0 mg/kg, 0.03 h, Mean, read-out: Plasma concentration of active compound): 60 ng/mL
- concentration at 0.08 h (male, ICR, mouse, plasma, iv, 1 mg/kg, intravenous 1.0 mg/kg, 0.08 h, Mean, read-out: Plasma concentration of active compound): 74.5 ng/mL
- concentration at 0.08 h (male, ICR, mouse, plasma, iv, 1 mg/kg, intravenous 1.0 mg/kg, 0.08 h, individual mice 4-6, read-out: Plasma concentration of active compound): 96.6 ng/mL
